From ChEMBL document CHEMBL5614405 (J Med Chem, 2024)
Activity calls are given as the source filed them. The rule behind the calls is not given here.

How the values were obtained:
[1] = target: Rho-associated protein kinase 1 (Homo sapiens, UniProt Q13464); assay: Inhibition of ROCK1 (unknown origin) incubated for 10 mins in presence of ATP by mobility shift assay
[2] = target: Rho-associated protein kinase 2 (Homo sapiens, UniProt O75116); assay: Inhibition of ROCK2 (unknown origin) incubated for 60 mins in presence of ATP by mobility shift assay
Oryctolagus cuniculus [3] = assay: Anti-glaucoma activity in methylcellulose-induced acute intraocular hypertensive New Zealand rabbit model assessed as reduction in intraocular pressure at 1.55 mM,TOP administration on conjunctival sac measured for 1 to 4 hrs; assay type: functional, organism-based; settings: time 1-4 hrs
[4] = Toxicity in chicken embryo chorioallantoic membrane assessed as irritation score at 1.55 mM measured after 5 mins by microscopic analysis relative to Netarsudil; assay type: tissue-based, Gallus gallus; settings: in vivo, 1550 µM
Oryctolagus cuniculus [5] = assay: Anti-glaucoma activity in methylcellulose-induced acute intraocular hypertensive New Zealand rabbit model assessed as reduction in intraocular pressure at 1.55 mM,TOP administration on conjunctival sac measured upto 24 hrs relative to Netarsudil; assay type: functional, organism-based

Sequence of Rho-associated protein kinase 2 (O75116 whole entry): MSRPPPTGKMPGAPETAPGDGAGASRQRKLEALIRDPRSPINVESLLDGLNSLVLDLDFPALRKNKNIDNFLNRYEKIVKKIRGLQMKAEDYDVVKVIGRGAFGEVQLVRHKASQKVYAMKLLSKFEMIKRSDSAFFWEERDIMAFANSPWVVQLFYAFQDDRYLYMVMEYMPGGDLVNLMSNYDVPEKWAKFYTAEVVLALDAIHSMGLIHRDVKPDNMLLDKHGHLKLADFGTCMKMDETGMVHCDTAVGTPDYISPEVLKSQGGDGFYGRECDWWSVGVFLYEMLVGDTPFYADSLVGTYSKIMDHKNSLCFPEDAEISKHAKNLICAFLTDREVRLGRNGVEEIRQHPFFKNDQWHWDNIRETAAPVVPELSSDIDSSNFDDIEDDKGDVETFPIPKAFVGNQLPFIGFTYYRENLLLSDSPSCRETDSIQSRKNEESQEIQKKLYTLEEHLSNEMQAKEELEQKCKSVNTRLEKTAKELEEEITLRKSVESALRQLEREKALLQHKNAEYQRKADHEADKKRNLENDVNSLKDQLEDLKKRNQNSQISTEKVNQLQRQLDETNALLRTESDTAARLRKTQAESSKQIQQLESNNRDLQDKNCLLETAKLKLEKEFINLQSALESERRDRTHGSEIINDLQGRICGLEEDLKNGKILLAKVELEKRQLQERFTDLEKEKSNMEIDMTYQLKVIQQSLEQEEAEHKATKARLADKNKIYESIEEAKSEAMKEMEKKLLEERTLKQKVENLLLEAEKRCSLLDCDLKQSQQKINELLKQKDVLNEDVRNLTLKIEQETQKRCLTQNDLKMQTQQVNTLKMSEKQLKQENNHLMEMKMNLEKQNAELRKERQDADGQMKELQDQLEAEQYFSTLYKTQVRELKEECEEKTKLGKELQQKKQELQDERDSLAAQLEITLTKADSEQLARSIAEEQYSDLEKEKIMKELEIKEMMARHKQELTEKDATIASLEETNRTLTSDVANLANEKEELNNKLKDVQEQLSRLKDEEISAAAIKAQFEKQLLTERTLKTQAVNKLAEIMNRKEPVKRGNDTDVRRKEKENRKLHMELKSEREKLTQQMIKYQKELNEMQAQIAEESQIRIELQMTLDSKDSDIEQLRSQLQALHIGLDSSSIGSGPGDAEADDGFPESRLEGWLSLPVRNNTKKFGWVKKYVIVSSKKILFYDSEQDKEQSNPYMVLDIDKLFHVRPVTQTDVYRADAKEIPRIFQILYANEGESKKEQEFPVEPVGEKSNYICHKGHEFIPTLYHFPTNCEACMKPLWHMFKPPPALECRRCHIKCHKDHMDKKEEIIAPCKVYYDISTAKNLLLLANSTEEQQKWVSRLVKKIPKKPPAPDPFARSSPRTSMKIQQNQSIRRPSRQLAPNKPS
Sequence of Rho-associated protein kinase 1 (Q13464 whole entry): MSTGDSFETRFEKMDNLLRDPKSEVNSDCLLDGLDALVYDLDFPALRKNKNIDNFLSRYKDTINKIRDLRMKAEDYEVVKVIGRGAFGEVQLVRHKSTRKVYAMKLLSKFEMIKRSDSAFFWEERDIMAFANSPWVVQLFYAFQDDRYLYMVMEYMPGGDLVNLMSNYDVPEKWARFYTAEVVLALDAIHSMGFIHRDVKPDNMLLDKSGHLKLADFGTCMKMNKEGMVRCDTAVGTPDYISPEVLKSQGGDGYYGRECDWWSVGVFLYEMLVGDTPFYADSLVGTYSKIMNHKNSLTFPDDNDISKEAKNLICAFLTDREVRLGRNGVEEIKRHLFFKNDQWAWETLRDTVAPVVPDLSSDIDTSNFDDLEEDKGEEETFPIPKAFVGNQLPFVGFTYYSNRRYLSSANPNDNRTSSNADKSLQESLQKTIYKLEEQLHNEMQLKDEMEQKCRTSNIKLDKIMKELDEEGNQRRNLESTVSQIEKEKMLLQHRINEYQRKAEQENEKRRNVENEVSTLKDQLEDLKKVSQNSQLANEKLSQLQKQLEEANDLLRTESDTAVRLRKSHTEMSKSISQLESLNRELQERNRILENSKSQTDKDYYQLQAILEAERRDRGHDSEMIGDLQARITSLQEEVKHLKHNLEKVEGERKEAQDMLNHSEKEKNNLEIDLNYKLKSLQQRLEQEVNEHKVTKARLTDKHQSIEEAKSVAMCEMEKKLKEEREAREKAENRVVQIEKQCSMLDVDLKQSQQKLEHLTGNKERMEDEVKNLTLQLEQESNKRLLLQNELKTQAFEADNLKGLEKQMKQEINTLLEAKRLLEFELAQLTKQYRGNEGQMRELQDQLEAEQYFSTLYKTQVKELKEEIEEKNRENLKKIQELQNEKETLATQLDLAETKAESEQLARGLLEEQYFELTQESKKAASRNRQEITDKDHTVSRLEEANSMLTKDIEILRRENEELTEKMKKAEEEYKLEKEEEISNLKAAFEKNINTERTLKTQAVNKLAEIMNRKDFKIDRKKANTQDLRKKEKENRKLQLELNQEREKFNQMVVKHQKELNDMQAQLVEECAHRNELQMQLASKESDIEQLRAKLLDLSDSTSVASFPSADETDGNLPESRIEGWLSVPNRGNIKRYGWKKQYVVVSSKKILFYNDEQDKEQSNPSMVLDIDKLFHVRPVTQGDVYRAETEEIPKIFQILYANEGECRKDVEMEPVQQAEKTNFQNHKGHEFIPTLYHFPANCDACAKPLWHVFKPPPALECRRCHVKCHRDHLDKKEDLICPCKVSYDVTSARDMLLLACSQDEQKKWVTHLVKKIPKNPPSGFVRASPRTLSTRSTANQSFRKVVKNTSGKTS

For `NCC(C(=O)Nc1ccc2cnccc2c1)c1ccc(COC(=O)CCCCO[N+](=O)[O-])cc1` (stereo not given), the IC50 [1] was 29 nM and the IC50 [2] was 5.15 nM.
For `NCC(C(=O)Nc1ccc2cnccc2c1)c1ccc(COC(=O)CCCCCO[N+](=O)[O-])cc1` (stereo not given), the IC50 [1] was 22.5 nM and the IC50 [2] was 5.27 nM.
In the case of `CS(=O)(=O)O.CS(=O)(=O)O.NCC(C(=O)Nc1ccc2cnccc2c1)c1ccc(COC(=O)c2ccc(CO[N+](=O)[O-])cc2)cc1` (stereo not given), the IC50 [1] is reported as 1.48 nM, the IC50 [2] is reported as 0.83 nM and the Activity (Oryctolagus cuniculus [3]) is reported as “Active”. The Activity [4] was “Toxic”.
In the case of `C[C@H]1CNCCCN1S(=O)(=O)c1cccc2cncc(F)c12`, the IC50 [2] is reported as 13.1 nM.
In the case of `CS(=O)(=O)O.CS(=O)(=O)O.NCC(C(=O)Nc1ccc2cnccc2c1)c1ccc(COC(=O)CCCO[N+](=O)[O-])cc1` (stereo not given), the IC50 [1] is reported as 4.94 nM, the IC50 [2] is reported as 2.51 nM and the Activity (Oryctolagus cuniculus [5]) is reported as “Active”. For the same compound, the Activity [4] was “Toxic”.
In the case of `NCC(C(=O)Nc1ccc2cnccc2c1)c1ccc(COC(=O)CCC(=O)O[C@@H]2CO[C@@H]3[C@H]2OC[C@@H]3O[N+](=O)[O-])cc1` (stereo not given in full), the IC50 [1] is reported as 28.6 nM and the IC50 [2] is reported as 8.56 nM.
